From US7183265B2, “Powdery product comprising crystalline β-maltose monohydrate, its preparation, and uses” (priority 2001, dated 2007)

What was measured:
Type in all cases: physicochemical
Hygroscopicity test = settings: 25° C., RH 75.2%
Experimental: (§1) An open aluminum cup containing a sample was placed in a desiccator, set at a RH of 75.2% (equilibrated with a saturated sodium chloride aqueous solution), kept at 25° C. for three days, and then weighted. Hygroscopicity was expressed with percentage (%) of the increased weight to the initial weight of the sample.

Solidification test = assay: Solidification test
Source text: A sample in the aluminum cup, taken out after keeping three days in the above hygroscopicity test, was macroscopically observed. Solidification was judged from the appearance of the sample whether it was solidified or not by adsorbing moisture.

[1] = Crystallinity by powdery X-ray diffraction (method of Ruland)
Experimental: Crystallinity of powder was measured by the method of Ruland (Acta Crystallographica, Vol. 14, p. 1180, 1961) based on a powdery X-ray diffraction pattern using “[…]”, an X-ray diffractometer (Cu, Kα-ray) commercialized by Rigaku Corp., Tokyo, Japan.

[2] = Preservation stability of the powder
Experimental: as §1, with “sample. A sample in the aluminum cup, taken out after keeping three days in the above hygroscopicity test, was macroscopically observed. Solidification was judged from the appearance of the sample whether it was solidified or not by adsorbing moisture.” for “sample.”

| hygroscopicity (in words) (Hygroscopicity test) | solidification (in words) (Solidification test) | Crystallinity (%) [1] | preservation stability (in words) [2] | Structure (SMILES) |
| --- | --- | --- | --- | --- |
| no hygroscopicity | no substantial solidification | 82.6% |  | OCC1OC(OC2C(CO)OC(O)C(O)C2O)C(O)C(O)C1O (stereo not drawn) [No. 9, hydrous crystalline β-maltose, reference compound] |
| high hygroscopicity | heavy solidification | 76.3% | unsatisfactory preservation stability | OC[C@H]1O[C@H](O[C@H]2[C@H](O)[C@@H](O)[C@H](O)O[C@@H]2CO)[C@H](O)[C@@H](O)[C@@H]1O [No. 10, anhydrous crystalline α-maltose] |
